Values quoted from earlier work in US20250231185A1, “Coronavirus T Cell Epitopes, Megapools and Uses Thereof” (La Jolla Institute for Immunology, priority 2021, published 2025).

Tested on: CD8+ T cells
Details: SARS-CoV-2-derived CD8 epitopes; dominant = recognized by 3 or more donors/different studies; cited from earlier work

With 538 (ASAFFGMSR) [compound 538] as the substance, how does the Dominant read?
The Dominant was “Yes (more dominant epitopes are defined by being recognized by 3 or more donors/different studies)”.

For 539 (GMSRIGMEV) [compound 539], which Dominant is on record?
Its Dominant is “Yes (more dominant epitopes are defined by being recognized by 3 or more donors/different studies)”.

With 540 (GMEVTPSGTWLTY) [compound 540] as the substance, how does the Dominant read?
Its Dominant is “Yes (more dominant epitopes are defined by being recognized by 3 or more donors/different studies)”.

With 541 (MEVTPSGTW) [compound 541] as the substance, how does the Dominant read?
The Dominant was “Yes (more dominant epitopes are defined by being recognized by 3 or more donors/different studies)”.

Which Dominant does the source give for 542 (MEVTPSGTWL) [compound 542] here?
Its Dominant is “Yes (more dominant epitopes are defined by being recognized by 3 or more donors/different studies)”.

For 547 (ILLNKHIDA) [compound 547], which Dominant is on record?
The Dominant was “Yes (more dominant epitopes are defined by being recognized by 3 or more donors/different studies)”.

With 549 (AYKTFPPTEPK) [compound 549] as the substance, how does the Dominant read?
Its Dominant is “Yes (more dominant epitopes are defined by being recognized by 3 or more donors/different studies)”.

Which Dominant does the source give for 555 (LPAADLDDF) [compound 555] here?
The Dominant was “Yes (more dominant epitopes are defined by being recognized by 3 or more donors/different studies)”.

For 557 (FSKQLQQSM) [compound 557], which Dominant is on record?
Its Dominant is “Yes (more dominant epitopes are defined by being recognized by 3 or more donors/different studies)”.

For 558 (VLSEARQHL) [compound 558], which Dominant is on record?
Its Dominant is “Yes (more dominant epitopes are defined by being recognized by 3 or more donors/different studies)”.

For 566 (KTIQPRVEK) [compound 566], which Dominant is on record?
Its Dominant is “Yes (more dominant epitopes are defined by being recognized by 3 or more donors/different studies)”.

For 579 (KLVNKFLAL) [compound 579], which Dominant is on record?
The Dominant was “Yes (more dominant epitopes are defined by being recognized by 3 or more donors/different studies)”.

Which Dominant does the source give for 583 (VTNNTFTLK) [compound 583] here?
The Dominant was “Yes (more dominant epitopes are defined by being recognized by 3 or more donors/different studies)”.

Which Dominant does the source give for 584 (FGDDTVIEV) [compound 584] here?
Its Dominant is “Yes (more dominant epitopes are defined by being recognized by 3 or more donors/different studies)”.

With 594 (YLFDESGEFKL) [compound 594] as the substance, how does the Dominant read?
The Dominant was “Yes (more dominant epitopes are defined by being recognized by 3 or more donors/different studies)”.

With 628 (PTDNYITTY) [compound 628] as the substance, how does the Dominant read?
The Dominant was “Yes (more dominant epitopes are defined by being recognized by 3 or more donors/different studies)”.

With 629 (TDNYITTY) [compound 629] as the substance, how does the Dominant read?
Its Dominant is “Yes (more dominant epitopes are defined by being recognized by 3 or more donors/different studies)”.

Which Dominant does the source give for 632 (QEILGTVSW) [compound 632] here?
The Dominant was “Yes (more dominant epitopes are defined by being recognized by 3 or more donors/different studies)”.

Same assay, conditions: T cell subset (CD4 or CD8) recognizing the SARS-CoV-2-derived epitope; cited from earlier work

With 538 (ASAFFGMSR) [compound 538] as the substance, how does the Restriction read?
The Restriction was “CD8”.

With 539 (GMSRIGMEV) [compound 539] as the substance, how does the Restriction read?
Its Restriction is “CD8”.

Which Restriction does the source give for 540 (GMEVTPSGTWLTY) [compound 540] here?
Its Restriction is “CD8”.

Which Restriction does the source give for 541 (MEVTPSGTW) [compound 541] here?
Its Restriction is “CD8”.

With 542 (MEVTPSGTWL) [compound 542] as the substance, how does the Restriction read?
The Restriction was “CD8”.

Which Restriction does the source give for 543 (EVTPSGTWLTY) [compound 543] here?
Its Restriction is “CD8”.

For 544 (VTPSGTWLTY) [compound 544], which Restriction is on record?
The Restriction was “CD8”.

With 545 (TPSGTWLTY) [compound 545] as the substance, how does the Restriction read?
The Restriction was “CD8”.

With 546 (KLDDKDPNF) [compound 546] as the substance, how does the Restriction read?
The Restriction was “CD8”.

With 547 (ILLNKHIDA) [compound 547] as the substance, how does the Restriction read?
The Restriction was “CD8”.

With 548 (LLNKHIDAY) [compound 548] as the substance, how does the Restriction read?
Its Restriction is “CD8”.

Which Restriction does the source give for 549 (AYKTFPPTEPK) [compound 549] here?
The Restriction was “CD8”.

For 550 (YKTFPPTEPK) [compound 550], which Restriction is on record?
The Restriction was “CD8”.

With 553 (KTFPPTEPKKDKKK) [compound 553] as the substance, how does the Restriction read?
The Restriction was “CD8”.

Which Restriction does the source give for 554 (KKQQTVTLL) [compound 554] here?
Its Restriction is “CD8”.

With 555 (LPAADLDDF) [compound 555] as the substance, how does the Restriction read?
The Restriction was “CD8”.

For 556 (AADLDDFSKQL) [compound 556], which Restriction is on record?
Its Restriction is “CD8”.

With 557 (FSKQLQQSM) [compound 557] as the substance, how does the Restriction read?
Its Restriction is “CD8”.

For 558 (VLSEARQHL) [compound 558], which Restriction is on record?
The Restriction was “CD8”.

For 559 (HLKDGTCGL) [compound 559], which Restriction is on record?
The Restriction was “CD8”.

For 560 (APHGHVMVEL) [compound 560], which Restriction is on record?
The Restriction was “CD8”.

For 561 (VMVELVAEL) [compound 561], which Restriction is on record?
The Restriction was “CD8”.

Which Restriction does the source give for 562 (VPHVGEIPV) [compound 562] here?
Its Restriction is “CD8”.

Which Restriction does the source give for 563 (HVGEIPVAY) [compound 563] here?
Its Restriction is “CD8”.

With 564 (IPVAYRKVLL) [compound 564] as the substance, how does the Restriction read?
The Restriction was “CD8”.

Which Restriction does the source give for 565 (TFNGECPNF) [compound 565] here?
Its Restriction is “CD8”.

With 566 (KTIQPRVEK) [compound 566] as the substance, how does the Restriction read?
The Restriction was “CD8”.

With 567 (GFMGRIRSV) [compound 567] as the substance, how does the Restriction read?
The Restriction was “CD8”.

For 569 (EEIAIILASF) [compound 569], which Restriction is on record?
Its Restriction is “CD8”.

With 570 (AIILASFSAST) [compound 570] as the substance, how does the Restriction read?
The Restriction was “CD8”.

Which Restriction does the source give for 571 (ILSPLYAFA) [compound 571] here?
Its Restriction is “CD8”.

Which Restriction does the source give for 572 (VRSIFSRTL) [compound 572] here?
Its Restriction is “CD8”.

With 573 (ITILDGISQY) [compound 573] as the substance, how does the Restriction read?
Its Restriction is “CD8”.

Which Restriction does the source give for 574 (RLIDAMMFT) [compound 574] here?
Its Restriction is “CD8”.

For 576 (TVYEKLKPV) [compound 576], which Restriction is on record?
The Restriction was “CD8”.

With 577 (YEKLKPVL) [compound 577] as the substance, how does the Restriction read?
The Restriction was “CD8”.

With 578 (EIKESVQTF) [compound 578] as the substance, how does the Restriction read?
Its Restriction is “CD8”.

For 579 (KLVNKFLAL) [compound 579], which Restriction is on record?
Its Restriction is “CD8”.

Which Restriction does the source give for 581 (APKEIIFL) [compound 581] here?
The Restriction was “CD8”.

With 582 (GETLPTEVL) [compound 582] as the substance, how does the Restriction read?
The Restriction was “CD8”.

With 583 (VTNNTFTLK) [compound 583] as the substance, how does the Restriction read?
Its Restriction is “CD8”.

With 584 (FGDDTVIEV) [compound 584] as the substance, how does the Restriction read?
Its Restriction is “CD8”.

For 585 (DTVIEVQGYK) [compound 585], which Restriction is on record?
The Restriction was “CD8”.

For 586 (QGYKSVNITF) [compound 586], which Restriction is on record?
The Restriction was “CD8”.

For 587 (FELDERIDKV) [compound 587], which Restriction is on record?
Its Restriction is “CD8”.

With 588 (FELDERIDKVL) [compound 588] as the substance, how does the Restriction read?
The Restriction was “CD8”.

For 589 (ELDERIDKV) [compound 589], which Restriction is on record?
Its Restriction is “CD8”.

With 590 (VLNEKCSAY) [compound 590] as the substance, how does the Restriction read?
Its Restriction is “CD8”.

Which Restriction does the source give for 591 (VELGTEVNEF) [compound 591] here?
Its Restriction is “CD8”.

For 592 (SELLTPLGI) [compound 592], which Restriction is on record?
Its Restriction is “CD8”.

Which Restriction does the source give for 594 (YLFDESGEFKL) [compound 594] here?
The Restriction was “CD8”.

For 628 (PTDNYITTY) [compound 628], which Restriction is on record?
The Restriction was “CD8”.

With 629 (TDNYITTY) [compound 629] as the substance, how does the Restriction read?
The Restriction was “CD8”.

For 632 (QEILGTVSW) [compound 632], which Restriction is on record?
Its Restriction is “CD8”.
